Laboratory results taken from patent US8192962B2, “Processes for detecting toxic substances” (Daikin Industries, Ltd., priority 2001, dated 2012).

Test system: Stress protein genes
Assay: DNA chip mRNA expression in yeast, stress protein genes (Table 6)
Format: cell-based, Saccharomyces cerevisiae S288C
Method in brief: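 Untreated cultures served as reference for log-phase S288C yeast given a growth-inhibiting, non-lethal toxicant dose for 2 h at 25° C. in YPD. Gene expression was measured on a whole-genome DNA chip from Cy3/Cy5-labeled cDNA.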

SMILES: S=C([S-])NCCNC(=S)[S-].[Zn+2] [(11), zinc N,N′-ethylenebis(dithiocarbamate)]
- The level of expressed mRNA in the presence of chemical substance/The level of expressed mRNA in the absence of chemical substance (yeast gene YAL005C): 1.0
- The level of expressed mRNA in the presence of chemical substance/The level of expressed mRNA in the absence of chemical substance (yeast gene YAL015C): 1.4
- The level of expressed mRNA in the presence of chemical substance/The level of expressed mRNA in the absence of chemical substance (yeast gene YBL075C): 1.6
- The level of expressed mRNA in the presence of chemical substance/The level of expressed mRNA in the absence of chemical substance (yeast gene YBL093C): 1.3
- The level of expressed mRNA in the presence of chemical substance/The level of expressed mRNA in the absence of chemical substance (yeast gene YBR044C): 1.1
- The level of expressed mRNA in the presence of chemical substance/The level of expressed mRNA in the absence of chemical substance (yeast gene YBR054W): 1.8
- The level of expressed mRNA in the presence of chemical substance/The level of expressed mRNA in the absence of chemical substance (yeast gene YBR067C): 3.1
- The level of expressed mRNA in the presence of chemical substance/The level of expressed mRNA in the absence of chemical substance (yeast gene YBR072W): 6.3
- The level of expressed mRNA in the presence of chemical substance/The level of expressed mRNA in the absence of chemical substance (yeast gene YBR126C): 1.1
- The level of expressed mRNA in the presence of chemical substance/The level of expressed mRNA in the absence of chemical substance (yeast gene YBR169C): 2.2
- The level of expressed mRNA in the presence of chemical substance/The level of expressed mRNA in the absence of chemical substance (yeast gene YCL035C): 2.1
- The level of expressed mRNA in the presence of chemical substance/The level of expressed mRNA in the absence of chemical substance (yeast gene YCR021C): 0.6
- The level of expressed mRNA in the presence of chemical substance/The level of expressed mRNA in the absence of chemical substance (yeast gene YCR060W): 1.2
- The level of expressed mRNA in the presence of chemical substance/The level of expressed mRNA in the absence of chemical substance (yeast gene YCR083W): 1.8
- The level of expressed mRNA in the presence of chemical substance/The level of expressed mRNA in the absence of chemical substance (yeast gene YDL022W): 2.8
- The level of expressed mRNA in the presence of chemical substance/The level of expressed mRNA in the absence of chemical substance (yeast gene YDL025C): 1.5
- The level of expressed mRNA in the presence of chemical substance/The level of expressed mRNA in the absence of chemical substance (yeast gene YDR033W): 0.7
- The level of expressed mRNA in the presence of chemical substance/The level of expressed mRNA in the absence of chemical substance (yeast gene YDR077W): 6.8
- The level of expressed mRNA in the presence of chemical substance/The level of expressed mRNA in the absence of chemical substance (yeast gene YDR098C): 1.4
- The level of expressed mRNA in the presence of chemical substance/The level of expressed mRNA in the absence of chemical substance (yeast gene YDR155C): 3.8
- The level of expressed mRNA in the presence of chemical substance/The level of expressed mRNA in the absence of chemical substance (yeast gene YDR258C): 1.7
- The level of expressed mRNA in the presence of chemical substance/The level of expressed mRNA in the absence of chemical substance (yeast gene YDR293C): 1.1
- The level of expressed mRNA in the presence of chemical substance/The level of expressed mRNA in the absence of chemical substance (yeast gene YDR436W): 2.0
- The level of expressed mRNA in the presence of chemical substance/The level of expressed mRNA in the absence of chemical substance (yeast gene YDR513W): 2.0
- The level of expressed mRNA in the presence of chemical substance/The level of expressed mRNA in the absence of chemical substance (yeast gene YDR519W): 1.2
- The level of expressed mRNA in the presence of chemical substance/The level of expressed mRNA in the absence of chemical substance (yeast gene YEL030W): 1.7
- The level of expressed mRNA in the presence of chemical substance/The level of expressed mRNA in the absence of chemical substance (yeast gene YEL039C): 1.7
- The level of expressed mRNA in the presence of chemical substance/The level of expressed mRNA in the absence of chemical substance (yeast gene YER042W): 1.8
- The level of expressed mRNA in the presence of chemical substance/The level of expressed mRNA in the absence of chemical substance (yeast gene YER057C): 1.8
- The level of expressed mRNA in the presence of chemical substance/The level of expressed mRNA in the absence of chemical substance (yeast gene YER103W): 1.8
- The level of expressed mRNA in the presence of chemical substance/The level of expressed mRNA in the absence of chemical substance (yeast gene YER125W): 1.0
- The level of expressed mRNA in the presence of chemical substance/The level of expressed mRNA in the absence of chemical substance (yeast gene YFL014W): 5.0
- The level of expressed mRNA in the presence of chemical substance/The level of expressed mRNA in the absence of chemical substance (yeast gene YFL016C): 1.2
- The level of expressed mRNA in the presence of chemical substance/The level of expressed mRNA in the absence of chemical substance (yeast gene YFL020C): 1.2
- The level of expressed mRNA in the presence of chemical substance/The level of expressed mRNA in the absence of chemical substance (yeast gene YFR052W): 0.9
- The level of expressed mRNA in the presence of chemical substance/The level of expressed mRNA in the absence of chemical substance (yeast gene YGL073W): 0.8
- The level of expressed mRNA in the presence of chemical substance/The level of expressed mRNA in the absence of chemical substance (yeast gene YGL115W): 1.0
- The level of expressed mRNA in the presence of chemical substance/The level of expressed mRNA in the absence of chemical substance (yeast gene YGL181W): 1.2
- The level of expressed mRNA in the presence of chemical substance/The level of expressed mRNA in the absence of chemical substance (yeast gene YGR088W): 3.9
- The level of expressed mRNA in the presence of chemical substance/The level of expressed mRNA in the absence of chemical substance (yeast gene YHL028W): 0.7
- The level of expressed mRNA in the presence of chemical substance/The level of expressed mRNA in the absence of chemical substance (yeast gene YHL046C): 0.4
- The level of expressed mRNA in the presence of chemical substance/The level of expressed mRNA in the absence of chemical substance (yeast gene YHR030C): 1.5
- The level of expressed mRNA in the presence of chemical substance/The level of expressed mRNA in the absence of chemical substance (yeast gene YHR057C): 1.6
- The level of expressed mRNA in the presence of chemical substance/The level of expressed mRNA in the absence of chemical substance (yeast gene YHR104W): 2.6
- The level of expressed mRNA in the presence of chemical substance/The level of expressed mRNA in the absence of chemical substance (yeast gene YIL011W): 2.5
- The level of expressed mRNA in the presence of chemical substance/The level of expressed mRNA in the absence of chemical substance (yeast gene YIL033C): 1.8
- The level of expressed mRNA in the presence of chemical substance/The level of expressed mRNA in the absence of chemical substance (yeast gene YIR037W): 3.0
- The level of expressed mRNA in the presence of chemical substance/The level of expressed mRNA in the absence of chemical substance (yeast gene YIR038C): 3.4
- The level of expressed mRNA in the presence of chemical substance/The level of expressed mRNA in the absence of chemical substance (yeast gene YJL128C): 0.6
- The level of expressed mRNA in the presence of chemical substance/The level of expressed mRNA in the absence of chemical substance (yeast gene YJL158C): 1.9
- The level of expressed mRNA in the presence of chemical substance/The level of expressed mRNA in the absence of chemical substance (yeast gene YJL159W): 1.2
- The level of expressed mRNA in the presence of chemical substance/The level of expressed mRNA in the absence of chemical substance (yeast gene YJL165C): 1.7
- The level of expressed mRNA in the presence of chemical substance/The level of expressed mRNA in the absence of chemical substance (yeast gene YJR045C): 1.4
- The level of expressed mRNA in the presence of chemical substance/The level of expressed mRNA in the absence of chemical substance (yeast gene YJR090C): 0.4
- The level of expressed mRNA in the presence of chemical substance/The level of expressed mRNA in the absence of chemical substance (yeast gene YKL161C): 3.1
- The level of expressed mRNA in the presence of chemical substance/The level of expressed mRNA in the absence of chemical substance (yeast gene YKL163W): 1.3
- The level of expressed mRNA in the presence of chemical substance/The level of expressed mRNA in the absence of chemical substance (yeast gene YKL164C): 1.0
- The level of expressed mRNA in the presence of chemical substance/The level of expressed mRNA in the absence of chemical substance (yeast gene YKL210W): 1.4
- The level of expressed mRNA in the presence of chemical substance/The level of expressed mRNA in the absence of chemical substance (yeast gene YKR053C): 0.5
- The level of expressed mRNA in the presence of chemical substance/The level of expressed mRNA in the absence of chemical substance (yeast gene YLL024C): 1.6
- The level of expressed mRNA in the presence of chemical substance/The level of expressed mRNA in the absence of chemical substance (yeast gene YLL026W): 1.7
- The level of expressed mRNA in the presence of chemical substance/The level of expressed mRNA in the absence of chemical substance (yeast gene YLL039C): 1.1
- The level of expressed mRNA in the presence of chemical substance/The level of expressed mRNA in the absence of chemical substance (yeast gene YLL060C): 14.1
- The level of expressed mRNA in the presence of chemical substance/The level of expressed mRNA in the absence of chemical substance (yeast gene YLR006C): 1.5
- The level of expressed mRNA in the presence of chemical substance/The level of expressed mRNA in the absence of chemical substance (yeast gene YLR109W): 1.5
- The level of expressed mRNA in the presence of chemical substance/The level of expressed mRNA in the absence of chemical substance (yeast gene YLR259C): 3.0
- The level of expressed mRNA in the presence of chemical substance/The level of expressed mRNA in the absence of chemical substance (yeast gene YML007W): 1.3
- The level of expressed mRNA in the presence of chemical substance/The level of expressed mRNA in the absence of chemical substance (yeast gene YML070W): 1.5
- The level of expressed mRNA in the presence of chemical substance/The level of expressed mRNA in the absence of chemical substance (yeast gene YMR021C): 0.9
- The level of expressed mRNA in the presence of chemical substance/The level of expressed mRNA in the absence of chemical substance (yeast gene YMR173W): 3.2
- The level of expressed mRNA in the presence of chemical substance/The level of expressed mRNA in the absence of chemical substance (yeast gene YMR186W): 1.1
- The level of expressed mRNA in the presence of chemical substance/The level of expressed mRNA in the absence of chemical substance (yeast gene YNL064C): 0.9
- The level of expressed mRNA in the presence of chemical substance/The level of expressed mRNA in the absence of chemical substance (yeast gene YNL160W): 5.4
- The level of expressed mRNA in the presence of chemical substance/The level of expressed mRNA in the absence of chemical substance (yeast gene YNL241C): 3.0
- The level of expressed mRNA in the presence of chemical substance/The level of expressed mRNA in the absence of chemical substance (yeast gene YNR076W): 1.4
- The level of expressed mRNA in the presence of chemical substance/The level of expressed mRNA in the absence of chemical substance (yeast gene YOL064C): 1.0
- The level of expressed mRNA in the presence of chemical substance/The level of expressed mRNA in the absence of chemical substance (yeast gene YOL161C): 1.5
- The level of expressed mRNA in the presence of chemical substance/The level of expressed mRNA in the absence of chemical substance (yeast gene YOR008C): 1.0
- The level of expressed mRNA in the presence of chemical substance/The level of expressed mRNA in the absence of chemical substance (yeast gene YOR009W): 1.4
- The level of expressed mRNA in the presence of chemical substance/The level of expressed mRNA in the absence of chemical substance (yeast gene YOR010C): 1.2
- The level of expressed mRNA in the presence of chemical substance/The level of expressed mRNA in the absence of chemical substance (yeast gene YOR027W): 1.3
- The level of expressed mRNA in the presence of chemical substance/The level of expressed mRNA in the absence of chemical substance (yeast gene YOR208W): 1.2
- The level of expressed mRNA in the presence of chemical substance/The level of expressed mRNA in the absence of chemical substance (yeast gene YPL059W): 1.6
- The level of expressed mRNA in the presence of chemical substance/The level of expressed mRNA in the absence of chemical substance (yeast gene YPL106C): 1.3
- The level of expressed mRNA in the presence of chemical substance/The level of expressed mRNA in the absence of chemical substance (yeast gene YPL140C): 0.8
- The level of expressed mRNA in the presence of chemical substance/The level of expressed mRNA in the absence of chemical substance (yeast gene YPL194W): 0.9
- The level of expressed mRNA in the presence of chemical substance/The level of expressed mRNA in the absence of chemical substance (yeast gene YPL223C): 1.8
- The level of expressed mRNA in the presence of chemical substance/The level of expressed mRNA in the absence of chemical substance (yeast gene YPL240C): 1.0
- The level of expressed mRNA in the presence of chemical substance/The level of expressed mRNA in the absence of chemical substance (yeast gene YPR005C): 0.4
- The level of expressed mRNA in the presence of chemical substance/The level of expressed mRNA in the absence of chemical substance (yeast gene YPR026W): 1.6
